Patent US9593305B2, “Differentiation of pluripotent stem cells” (Janssen Biotech, Inc., priority 2008, dated 2017)

Test system: H1 human embryonic stem cells
Assay: Primary screening: definitive endoderm differentiation in the absence of activin A, cell number and SOX17 (Example 3)
Type: cell-based
Settings: for Cell Number, % of positive control / Sox17 Intensity % of positive control: Table 2 hit subset of primary screening, no activin A; for Cell Number, % of positive control / Sox17 Intensity % of positive control / SOX17 expression in the absence of activin A: 2.5 μM; for SOX17 expression in the absence of activin A: primary screening; for Cell Number: % of positive control / Sox17 Expression: % of positive control / Sox17 Expression: Average Total Intensity / Cell Number: Average Total Cell Number: 2.5 μM compound, 20 ng/ml Wnt3a days 1-2, no activin A, four-day assay; for Cell Number: Average Total Cell Number: positive control 100 ng/ml activin A + Wnt3a
Experimental: Briefly, clusters of H1 human embryonic stem cells were grown on reduced growth factor […]™ (Invitrogen; Cat #1356231)-coated tissue culture plastic. Cells were passaged using collagenase (Invitrogen; Cat #17104-019) treatment and gentle scraping, washed to remove residual enzyme, and plated with even dispersal at a ratio of 1:1 (surface area) on reduced growth factor […]™-coated 96-well black plates (Packard ViewPlates; PerkinElmer; Cat #6005182) using volumes of 100 μl/well. Cells were allowed to attach as clusters and then recover log phase growth over a 1 to 3 day period, feeding daily with MEF conditioned medium supplemented with 8 ng/ml bFGF (R&D Systems; Cat #233-FB). Plates were maintained at 37° C., 5% CO2 in a humidified box throughout the duration of assay.
The compounds tested were made available as 5 mM stocks in 96-well plate format, solubilized in 100% DMSO (Sigma; Cat #D2650) and stored at −80° C. The library compounds were further diluted to an intermediate concentration of 0.2 mM in 50 mM HEPES (Invitrogen; Cat #15630-080), 20% DMSO and stored at 4° C. Test conditions were performed in triplicate, feeding on alternate days over a four-day assay period. Primary screening assays were initiated by aspirating culture medium from each well followed by three washes in PBS (Invitrogen; Cat #14190) to remove residual growth factors and serum. On the first day of assay, test volumes of 200 μl per well were added back containing DMEM:F12 base medium (Invitrogen; Cat #11330-032) supplemented with 0.5% FCS (HyClone; Cat #SH30070.03) and 20 ng/ml Wnt3a (R&D Systems; Cat #1324-WN) plus 2.5 μM test compound. On the third day of assay, test volumes of 200 μl per well were added back containing DMEM:F12 base medium supplemented with 2% FCS plus 2.5 μM test compound, without Wnt3a. Positive control samples contained the same base medium supplemented with FCS, substituting 100 ng/ml recombinant human activin A (PeproTech; Cat #120-14) for the test compound throughout the four-day assay along with Wnt3a (20 ng/ml) added only on days 1 and 2. Negative control samples contained DMEM:F12 base medium supplemented with FCS, adding Wnt3a on days 1 and 2 but omitting activin A.
At the conclusion of four-days of culture, assay plates were washed twice with PBS (Invitrogen; Cat #14190), fixed with 4% paraformaldehyde (Alexis Biochemical; Cat #ALX-350-011) at room temperature for 20 minutes, then washed three times with PBS and permeabilized with 0.5% Triton X-100 (Sigma; Cat #T8760-2) for 20 minutes at room temperature. Cells were washed again three times with PBS and blocked with 4% chicken serum (Invitrogen; Cat #16110082) in PBS for 30 minutes at room temperature. Primary antibody (goat anti-human SOX17; R&D Systems; Cat #AF1924) was diluted 1:100 in 4% chicken serum and added to each well for one hour at room temperature. Alexa Fluor 488 conjugated secondary antibody (chicken anti-goat IgG; Molecular Probes; Cat #AZ1467) was diluted 1:200 in PBS and added to each sample well after washing three times with PBS. To counter stain nuclei, 4 μg/ml Hoechst 33342 (Invitrogen; Cat #H3570) was added for ten minutes at room temperature. Plates were washed once with PBS and left in 100 μl/well PBS for imaging.
Imaging was performed using an IN Cell Analyzer 1000 (GE Healthcare) utilizing the 51008bs dichroic for cells stained with Hoechst 33342 and Alexa Fluor 488. Exposure times were optimized from positive control wells and from untreated negative control wells stained with secondary antibody alone. Images from 15 fields per well were acquired to compensate for any cell loss during the bioassay and subsequent staining procedures. Measurements for total cell number and total SOX17 intensity were obtained from each well using IN Cell Developer Toolbox 1.7 (GE Healthcare) software. Segmentation for the nuclei was determined based on gray-scale levels (baseline range 100-300) and nuclear size. […]

Row | Compound | Cell Number, % of positive control | Sox17 Intensity % of positive control | SOX17 expression in the absence of activin A | Cell Number: % of positive control | Sox17 Expression: % of positive control | Sox17 Expression: Average Total Intensity | Cell Number: Average Total Cell Number
1 | O=C1CCN2CCN(CC2)Cc2cc(Cl)cc(c2)Nc2ncnc(n2)-c2cncc(c2)CCCN1 [Compound 34, 5-Chloro-1,8,10,12,16,22,26,32-octaazapentacyclo[24.2.2.1˜3.7˜0.1˜9,13˜0.1˜14.18˜]tritriaconta-3(33), 4,6,9(32), 10,12,14(31), 15,17-nonaen-23-one] | 114.8 % of positive control | 44.5 % of positive control |  |  |  |  | 
2 | CCN1CCCc2cccc(c2)-c2ncnc(n2)Nc2cccc(c2)CCNC(=O)C1 [Compound 29, 18-Ethyl-3,5,7,15,18,28-hexaazatetracyclo[20.3.1.1˜2,6˜0.1˜8,12˜]octacosa-1(26), 2(28), 3,5,8(27), 9,11,22,24-nonaen-16-one] | 136.0 % of positive control | 34.5 % of positive control |  |  |  |  | 
3 | CN1CCC(=O)NCCCNc2ncccc2-c2ncnc(n2)Nc2cccc(c2)C1 [Compound 39, 9-Methyl-2,3,4,5,7,8,9,10-octahydro-16H-17,21-(azeno)-11,15-(metheno)pyrido[3,2-g][1,3,5,9,13,17]hexaazacyclotricosin-6(1H)-one] | 147.0 % of positive control | 35.2 % of positive control |  |  |  |  | 
4 | CCN1CC(=O)NCCCc2cncc(c2)-c2ncnc(n2)Nc2cc(Cl)cc(c2)C1 [Compound 35, 10-Chloro-14-ethyl-3,5,7,14,17,23,27-heptaazatetracyclo[19.3.1.1˜2,6˜0.1˜8,12]Theptacosa-1(25), 2(27), 3,5,8(26), 9,11,21,23-nonaen-16-one] | 158.7 % of positive control | 86.8 % of positive control | SOX17 expression was induced |  |  |  | 
5 | O=C1NCCCc2cncc(c2)-c2ncnc(n2)Nc2cc(Cl)cc(c2)CN2CCCC1C2 (stereo not shown) [Compound 37, 10-Chloro-3,5,7,14,20,26,31-heptaazapentacyclo[22.3.1.1˜2,6˜0.1˜8,12˜0.1˜14,18˜]hentriaconta-1(28), 2(31), 3,5,8(30), 9,11,24,26-nonaen-19-one] | 129.3 % of positive control | 29.1 % of positive control |  |  |  |  | 
6 | O=C1NCCCc2cncc(c2)-c2ncnc(n2)Nc2cccc(c2)CN2CCCC1C2 (stereo not shown) [Compound 17, 3,5,7,14,20,26,31-Heptaazapentacyclo[22.3.1.1-2,6˜1˜8,12˜1˜14,18˜]hentriaconta-1(28), 2(31), 3,5,8(30), 9,11,24,26-nonaen-19-one] | 133.8 % of positive control | −0.7 % of positive control |  |  |  |  | 
7 | CCN1CC(=O)NCCCc2cc(ccc2F)-c2ncnc(n2)Nc2cc(Cl)cc(c2)C1 [Compound 25, 10-Chloro-14-ethyl-22-fluoro-3,5,7,14,17,27-hexaazatetracyclo[19.3.1.1˜2,6˜0.1˜8,12˜]heptacosa-1(25), 2(27), 3,5,8(26), 9,11,21,23-nonaen-16-one] |  |  |  | 146.17 % of positive control | 20.32 % of positive control | 4.03E+07 | 4151
8 | O=C1CCN2CCN(CC2)Cc2cccc(c2)Nc2ncnc(n2)-c2cncc(c2)CCCN1 [Compound 23, 1,8,10,12,16,22,26,32-Octaazapentacyclo[24.2.2.1-3,7˜0.1˜9,13˜0.1˜14,18˜]tritriaconta-3(33), 4,6,9(32), 10,12,14(31), 15,17-nonaen-23-one] |  |  |  | 24.13 % of positive control | −0.48 % of positive control | −1.56E+06 | 2563
9 | O=C1NCCCc2cncc(c2)-c2ncnc(n2)Nc2cccc(c2)CN2CCC1CC2 [Compound 22, 1,8,10,12,16,22,30-Heptaazapentacyclo[22.2.2.1-3,7˜0.1˜9,13˜1-14,18˜]hentriaconta-3(31), 4,6,9(30), 10,12,14(29), 15,17-nonaen-23-one] | 132.7 % of positive control | 72.4 % of positive control | SOX17 expression was induced |  |  |  | 
10 | CN1CCC(=O)NCCCNc2cccc(c2)-c2ncnc(n2)Nc2cccc(c2)C1 [Compound 21, 14-Methyl-3,5,7,14,18,22,29-heptaazatetracyclo[21.3.1.1˜2,6˜0.1˜8,12˜]nonacosa-1(27), 2(29), 3,5,8(28), 9,11,23,25-nonaen-17-one] |  |  |  | 44.44 % of positive control | −0.61 % of positive control | −1.96E+06 | 4719
